Source: patent publication US6822100B2 (Bristol-Myers Squibb Company, priority 2001, dated 2004)
Counter-ions that a name gives are not always drawn. Like-named read-outs stand apart in the source and are kept apart here.

Tests used:
[1] = target: T1, human serotonin transporters (Homo sapiens, UniProt P31645); test: Serotonin Transporter Binding Assay; details: HEK-hSERT cell membranes, 1 nM [3H]-citalopram, Cheng and Prusoff
T1 construct: expressed in transfected cells; host or cells: HEK-293 (HEK-hSERT), membrane homogenates
T1 sequence (P31645 whole entry): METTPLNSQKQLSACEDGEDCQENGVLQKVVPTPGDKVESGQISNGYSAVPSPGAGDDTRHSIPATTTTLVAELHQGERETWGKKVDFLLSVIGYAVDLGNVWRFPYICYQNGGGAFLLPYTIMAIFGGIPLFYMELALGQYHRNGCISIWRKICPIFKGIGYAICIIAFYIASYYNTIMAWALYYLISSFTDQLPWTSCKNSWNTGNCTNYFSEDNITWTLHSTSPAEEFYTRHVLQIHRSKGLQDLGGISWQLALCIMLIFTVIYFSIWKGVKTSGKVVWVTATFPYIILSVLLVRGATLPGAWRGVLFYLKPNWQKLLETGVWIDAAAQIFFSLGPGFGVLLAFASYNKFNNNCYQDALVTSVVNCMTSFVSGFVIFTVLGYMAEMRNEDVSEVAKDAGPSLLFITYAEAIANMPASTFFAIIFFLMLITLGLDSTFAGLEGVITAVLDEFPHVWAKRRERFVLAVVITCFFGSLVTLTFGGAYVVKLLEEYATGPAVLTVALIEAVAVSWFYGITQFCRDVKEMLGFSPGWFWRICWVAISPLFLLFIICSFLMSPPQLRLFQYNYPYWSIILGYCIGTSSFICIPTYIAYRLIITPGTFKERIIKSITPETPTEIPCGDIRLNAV
In short: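 Displacement of 1 nM [^3H]-citalopram (1 hr, 25° C, Tris pH 7.4 with NaCl/KCl) from membranes of HEK-293 cells stably expressing human SERT, with bound ligand read after filtration. 10 μM fluoxetine defined non-specific binding. Ki values were derived via Cheng–Prusoff from IC50 displacement-curve midpoints.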

[2] = target: T2, recombinant human dopamine D2L receptors (Homo sapiens, UniProt P14416); test: Dopamine Binding Assay; details: HEK-D2L cell membranes, 150 pM [3H]-spiperone, Cheng and Prusoff
T2 construct: expressed in transfected cells; host or cells: HEK-293 (HEK-D2L), membrane homogenates
T2 sequence (P14416 whole entry): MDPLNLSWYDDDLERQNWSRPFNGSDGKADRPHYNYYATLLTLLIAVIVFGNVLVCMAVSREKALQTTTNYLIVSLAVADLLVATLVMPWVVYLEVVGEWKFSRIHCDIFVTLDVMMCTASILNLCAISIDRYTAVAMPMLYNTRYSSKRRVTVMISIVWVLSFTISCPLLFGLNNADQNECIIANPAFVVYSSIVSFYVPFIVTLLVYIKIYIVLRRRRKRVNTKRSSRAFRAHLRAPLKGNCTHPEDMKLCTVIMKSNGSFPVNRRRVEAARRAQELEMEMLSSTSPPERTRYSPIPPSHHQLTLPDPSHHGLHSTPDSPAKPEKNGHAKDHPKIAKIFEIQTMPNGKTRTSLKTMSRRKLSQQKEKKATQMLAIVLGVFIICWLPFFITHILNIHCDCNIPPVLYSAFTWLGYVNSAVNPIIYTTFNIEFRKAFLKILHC
In short: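 Competition binding on HEK-293 membranes stably expressing human D2L (~5 μg protein) with 150 pM [3H]-spiperone, 1.5 h at 22 °C in 50 mM Tris pH 7.4, 1 mM EDTA, 6 mM MgCl2. Filtration read-out; non-specific binding defined with 2 μM (+)butaclamol, Ki by Cheng-Prusoff.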

Ki ([1]; read-out: SERT Ki) [nM] | SMILES | Ki [2] [nM] | Ki ([1]; SERT Ki (nM)) [nM]
10 to 100 | COc1ccc(CNCC2CC2c2c[nH]c3ccc(F)cc23)cc1 (stereo not drawn) [Example 52, trans-2-[5-Fluoroindol-3-yl]-1-[N-(4-methoxybenzyl)aminomethyl]-cyclopropane] | 100 to 1000 | 
10 to 100 | Fc1ccc2[nH]cc(C3CC3CNCc3ccccc3F)c2c1 (stereo not drawn) [Example 53, trans-1-[N-(2-Fluorobenzyl)aminomethyl]2-[5-fluoroindol-3-yl]-cyclopropane] | 100 to 1000 | 
10 to 100 | Fc1cccc(CNCC2CC2c2c[nH]c3ccc(F)cc23)c1 (stereo not drawn) [Example 54, trans-1-[N-(3-Fluorobenzyl)aminomethyl]2-[5-fluoroindol-3-yl]-cyclopropane] | 100 to 1000 | 
10 to 100 | Fc1ccc(CNCC2CC2c2c[nH]c3ccc(F)cc23)cc1 (stereo not drawn) [Example 55, trans-1-[N-(4-Fluorobenzyl)aminomethyl]2-[5-fluoroindol-3-yl]-cyclopropane] | 100 to 1000 | 
10 to 100 | Fc1ccc2[nH]cc(C3CC3CNCc3ccccn3)c2c1 (stereo not drawn) [Example 56, trans-2-[5-Fluoroindol-3-yl]-1-[N-(2-pyridylmethyl)aminomethyl]-cyclopropane] | 100 to 1000 | 
10 to 100 | Fc1ccc2[nH]cc(C3CC3CNCc3cccnc3)c2c1 (stereo not drawn) [Example 57, trans-2-[5-Fluoroindol-3-yl]-1-[N-(3-pyridylmethyl)aminomethyl]-cyclopropane] | 10 to 100 | 
10 to 100 | Fc1ccc2[nH]cc(C3CC3CNCc3ccncc3)c2c1 (stereo not drawn) [Example 58, trans-2-[5-Fluoroindol-3-yl]-1-[N-(4-pyridylmethyl)aminomethyl]-cyclopropane] | 10 to 100 | 
10 to 100 | Fc1ccc2[nH]cc(C3CC3CNCCc3ccccc3F)c2c1 (stereo not drawn) [Example 59, trans-2-[5-Fluoroindol-3-yl]-1-[N-(2-fluorophenyl)ethylaminomethyl]-cyclopropane] | 10 to 100 | 
10 to 100 | Fc1cccc(CCNCC2CC2c2c[nH]c3ccc(F)cc23)c1 (stereo not drawn) [Example 60, trans-2-[5-Fluoroindol-3-yl]-1-[N-(3-fluorophenyl)ethylaminomethyl]-cyclopropane] | 100 to 1000 | 
10 to 100 | Fc1ccc(CCNCC2CC2c2c[nH]c3ccc(F)cc23)cc1 (stereo not drawn) [Example 61, trans-2-[5-Fluoroindol-3-yl]-1-[N-(4-fluorophenyl)ethylaminomethyl]-cyclopropane] | 10 to 100 | 
1 to 10 | Fc1ccc2[nH]cc(C3CC3CNCCCc3ccccc3)c2c1 (stereo not drawn) [Example 62, trans-2-[5-Fluoroindol-3-yl]-1-[N-3-phenylpropylaminomethyl]-cyclopropane] | 10 to 100 | 
10 to 100 | Fc1ccc2[nH]cc(C3CC3CNCCCc3cccnc3)c2c1 (stereo not drawn) [Example 63, trans-2-[5-Fluoroindol-3-yl]-1-[N-3-(3-pyridyl)propylaminomethyl]-cyclopropane] | 10 to 100 | 
10 to 100 | Fc1ccc2[nH]cc(C3CC3CNCCc3c[nH]cn3)c2c1 (stereo not drawn) [Example 64, trans-2-[5-Fluoroindol-3-yl]-1-[N-2-(4-imidazolyl)ethylaminomethyl]-cyclopropane] | 10 to 100 | 
10 to 100 | Fc1ccc2[nH]cc(C3CC3CNCCCn3ccnc3)c2c1 (stereo not drawn) [Example 65, trans-2-[5-Fluoroindol-3-yl]-1-[N-3-(1-imidazolyl)propylaminomethyl]-cyclopropane] | 10 to 100 | 
10 to 100 | Fc1ccc2[nH]cc(C3CC3CNCc3cccs3)c2c1 (stereo not drawn) [Example 66, trans-2-[5-Fluoroindol-3-yl]-1-[N-2-thiopheneylmethylaminomethyl]-cyclopropane] | 100 to 1000 | 
10 to 100 | Fc1ccc2[nH]cc(C3CC3CNCCc3cccs3)c2c1 (stereo not drawn) [Example 67, trans-2-[5-Fluoroindol-3-yl]-1-[N-2-(2-thiopheneyl)ethylaminomethyl]-cyclopropane] | 10 to 100 | 
1 to 10 | Fc1ccc2[nH]cc(C3CC3CN3CCC(Cc4ccccc4)CC3)c2c1 (stereo not drawn) [Example 73, trans-1-(4-Benzyl-piperidin-1-yl-methyl)-2-[5-fluoroindol-3-yl]-cyclopropane] | 10 to 100 | 
 | Fc1ccc2[nH]cc(C3CC3CN3CCNCC3)c2c1 (stereo not drawn) [Example 74, trans-2-[5-Fluoroindol-3-yl]-1-(piperazin-1-yl-methyl)-cyclopropane] | > 1000 | 1 to 10
10 to 100 | Fc1ccc2[nH]cc(C3CC3CN3CCN(Cc4ccccc4)CC3)c2c1 (stereo not drawn) [Example 75, trans-1-[4-Benzyl-piperazin-1-yl-methyl]-2-[5-fluoroindol-3-yl]-cyclopropane] | 10 to 100 | 
 | Fc1ccc2[nH]cc(C3CC3CN3CCCCC3)c2c1 (stereo not drawn) [Example 85, trans-2-[5-Fluoroindol-3-yl]-1-[piperidin-1-yl-methyl]-cyclopropane] | > 1000 | 10 to 100
 | CC(C1CC1c1c[nH]c2ccc(C#N)cc12)N1CCCC1 (stereo not drawn) [Example 124, trans-3-[2-(1-Pyrrolidin-1-yl-ethyl)-cyclopropyl]-1H-indole-5-carbonitrile] | > 1000 | 1 to 10
1 to 10 | CN(Cc1ccccc1)CC1CC1c1c[nH]c2ccc(F)cc12 (stereo not drawn) [Example 131] | 100 to 1000 | 
1 to 10 | CCOC(=O)NCCN(C)CC1CC1c1c[nH]c2ccc(C#N)cc12 (stereo not drawn) [Example 134] | > 1000 | 
 | CCNCC1CC1c1c[nH]c2ccc(F)cc12 (stereo not drawn) [Example 136] | > 1000 | 10 to 100
 | N#Cc1ccc2[nH]cc(C3CC3CN3CCOCC3)c2c1 (stereo not drawn) [Example 137] | > 1000 | 10 to 100
10 to 100 | CN(CC1CC1c1c[nH]c2ccc(C#N)cc12)c1ccccc1 (stereo not drawn) [Example 138] | > 1000 | 
10 to 100 | Fc1ccc2[nH]cc(C3CC3CNC34C[C@H]5C[C@@H](C3)C[C@@H](C4)C5)c2c1 (stereo partly drawn) [Example 139] | 10 to 100 | 
 | CN(C)CC1CC1c1c[nH]c2ccccc12 (stereo not drawn) [Example 143] | > 1000 | 10 to 100

SMILES | Ki ([1]; read-out: SERT Ki) [nM] | Ki [2] [nM] | Ki ([1]; SERT Ki (nM)) [nM]
Fc1ccc2[nH]cc(C3CC3CNCCc3c[nH]c4ccccc34)c2c1 (stereo not drawn) [Example 68, trans-2-[5-Fluoroindol-3-yl]-1-[N-2-(3-indolyl)ethylaminomethyl]-cyclopropane] | 1 to 10 | 10 to 100 | 
Fc1ccc2[nH]cc(C3CC3CNCC3CC3)c2c1 (stereo not drawn) [Example 69, trans-1-[N-Cyclopropylmethylaminomethyl]-2-[5-fluoroindol-3-yl]-cyclopropane] | 10 to 100 | 100 to 1000 | 
Fc1ccc2[nH]cc(C3CC3CNC3CCCCC3)c2c1 (stereo not drawn) [Example 70, trans-1-[N-Cyclohexylaminomethyl]-2-[5-fluoroindol-3-yl]-cyclopropane] | 10 to 100 | 100 to 1000 | 
Fc1ccc2[nH]cc(C3CC3CNCC3CCCCC3)c2c1 (stereo not drawn) [Example 71, trans-1-[N-Cyclohexylmethylaminomethyl]-2-[5-fluoroindol-3-yl]-cyclopropane] | 10 to 100 | 10 to 100 | 
CC(C)CCNCC1CC1c1c[nH]c2ccc(F)cc12 (stereo not drawn) [Example 72, trans-2-[5-Fluoroindol-3-yl]-1-[N-3-methyl-butylaminomethyl]-cyclopropane] | 10 to 100 | 100 to 1000 | 
CCCN(CCC)CC1CC1c1c[nH]c2ccc(F)cc12 (stereo not drawn) [Example 77, trans-1-[N,N-Dipropylaminomethyl]-2-[5-fluoroindol-3-yl]-cyclopropane] | 10 to 100 | 100 to 1000 | 
Fc1ccc2[nH]cc(C3CC3CN3CCCC3)c2c1 (stereo not drawn) [Example 84, trans-2-[5-Fluoroindol-3-yl]-1-[pyrrolidin-1-yl-methyl]-cyclopropane] | 1 to 10 | 100 to 1000 | 
CNC[C@H]1C[C@@H]1c1c[nH]c2ccc(C#N)cc12 [Example 120, (1S,2S)-trans-2-[5-Cyanoindol-3-yl]-1-(N-methylaminomethyl)cyclopropane] | 1 to 10 | 100 to 1000 | 
CN(C)C[C@@H]1C[C@H]1c1c[nH]c2ccc(C#N)cc12 [Example 127a, (1R,2R)-trans-2-[5-Cyanoindol-3-yl]-1-(N,N-dimethylaminomethyl)cyclopropane maleate salt] | 10 to 100 | > 1000 | 
CN(C)C[C@@H]1C[C@H]1c1c[nH]c2ccc(F)cc12 [Example 128a, (1R,2R)-trans-1-(N,N-dimethylaminomethyl)-2-[5-fluoroindol-3-yl]-cyclopropane maleate salt] | 10 to 100 | > 1000 | 
CNCC1CC1c1c[nH]c2ccc(F)cc12 (stereo not drawn) [Example 132] | 10 to 100 | 100 to 1000 | 
CCN(C)CC1CC1c1c[nH]c2ccc(F)cc12 (stereo not drawn) [Example 133] | 10 to 100 | 100 to 1000 | 
CCNCC1CC1c1c[nH]c2ccc(C#N)cc12 (stereo not drawn) [Example 135] | 1 to 10 | 10 to 100 | 
CC1CCN(CC2CC2c2c[nH]c3ccc(F)cc23)CC1 (stereo not drawn) [Example 140] | 100 to 1000 | 100 to 1000 | 
Fc1ccc2[nH]cc(C3CC3CN3CCOCC3)c2c1 (stereo not drawn) [Example 141] | 10 to 100 | 100 to 1000 | 
CCCNCC1CC1c1c[nH]c2ccc(F)cc12 (stereo not drawn) [Example 142] | 10 to 100 | 100 to 1000 | 
CCN(CC)CCC1CC1c1c[nH]c2ccc(C#N)cc12 (stereo not drawn) [Example 144, 3-[2-(2-Diethylamino-ethyl)-cyclopropyl]-1H-indole-5-carbonitrile] | 10 to 100 | 100 to 1000 | 
